Source: patent US9085568B2, “Mineralocorticoid receptor antagonists” (Merck Sharp & Dohme Corp., priority 2011, dated 2015)

target: T1, full-length human Mineralocorticoid Receptor (MR) (Homo sapiens, UniProt P08235); assay: human MR NH Pro assay (PathHunter protein:protein interaction, MR antagonism); type: cell-based; conditions: PathHunter CHO-K1 cells overexpressing human MR; aldosterone (0.3 nM), 6 hours at 37° C.; antagonism of MR binding to coactivator peptide; read-out: IC50 Rating
T1 construct: host or cells: PathHunter CHO-K1 cells
T1 sequence (P08235 1-984): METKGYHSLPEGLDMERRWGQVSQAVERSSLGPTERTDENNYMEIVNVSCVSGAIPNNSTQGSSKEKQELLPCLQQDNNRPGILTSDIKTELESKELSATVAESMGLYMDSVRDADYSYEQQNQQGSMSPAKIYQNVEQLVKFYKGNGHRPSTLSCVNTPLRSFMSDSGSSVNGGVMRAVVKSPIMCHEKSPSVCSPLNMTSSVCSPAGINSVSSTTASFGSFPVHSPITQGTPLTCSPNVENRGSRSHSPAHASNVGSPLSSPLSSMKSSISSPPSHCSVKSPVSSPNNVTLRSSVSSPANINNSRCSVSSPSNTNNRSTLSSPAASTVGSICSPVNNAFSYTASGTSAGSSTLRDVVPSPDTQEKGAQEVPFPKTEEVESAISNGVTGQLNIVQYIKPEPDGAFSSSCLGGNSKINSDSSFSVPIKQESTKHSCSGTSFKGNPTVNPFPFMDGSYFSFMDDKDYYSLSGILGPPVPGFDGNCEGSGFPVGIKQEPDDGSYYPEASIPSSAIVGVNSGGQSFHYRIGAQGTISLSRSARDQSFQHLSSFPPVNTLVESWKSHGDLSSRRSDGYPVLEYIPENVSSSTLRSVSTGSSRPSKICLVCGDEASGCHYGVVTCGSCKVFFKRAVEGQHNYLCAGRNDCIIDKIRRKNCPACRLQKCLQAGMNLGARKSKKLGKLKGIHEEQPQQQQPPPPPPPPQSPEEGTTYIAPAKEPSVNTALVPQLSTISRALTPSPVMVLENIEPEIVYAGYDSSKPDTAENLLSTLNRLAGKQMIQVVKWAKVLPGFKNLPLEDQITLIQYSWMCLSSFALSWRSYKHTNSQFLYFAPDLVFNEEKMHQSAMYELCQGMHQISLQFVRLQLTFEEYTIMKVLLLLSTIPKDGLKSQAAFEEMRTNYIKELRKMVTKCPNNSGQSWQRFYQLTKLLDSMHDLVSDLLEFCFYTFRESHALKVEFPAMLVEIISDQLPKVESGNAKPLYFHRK
Description: The activity of the compounds of the present invention regarding mineralocorticoid receptor antagonism was evaluated using the following assay.
The human MR NH Pro assay is a commercially available PathHunter™ Protein: Protein interaction assay (DiscoveRx; http://www.discoverx.com/nhrs/prod-nhrs.php) that measures the ability of compounds to antagonize full-length human Mineralocorticoid Receptor (MR) binding to a coactivator peptide.
3× PathHunter Detection Reagents (Cat #93-0001) (need ˜6 ml/plate). […] Control Agonist: Aldosterone: Sigma cat #A9477 • Prepare stock solution—10 μM in DMSO kept at −20° C. • for assay, dilute in assay media to 1.8 or 6 nM (6× of final concentration=about 0.3 nM to about 1.0 nM) • 5. Cell line: PathHunter CHO-K1 MR cells Cat #93-0456C2, Lot No: 09B0913, from operation liquid nitrogen stock. • 6. […] Methods: • Assay Set Up and Calculations: • 1. Cells were grown in F12+FBS+Hygromycin+pen/strep+Genetin • 2. Cells were collected with 0.05% trypsin and the cell suspension was spun and resuspended in a volume of F12+1.5% CD-FBS and counted. • 3. The cells were resuspended to 4×10^5 cells/mL. • 4. Cells were (25 μL/well) added to the wells of a 384 well plate. • 5. The plate was then incubated at 37° C. over night in a humidified incubator with 5% CO2. • 6. Test compounds were titrated starting at 4.4 mM, 10-point titration in 1:3 dilution. • 7.
5 μL of assay media was added to all wells in column 23 and 24. • 5. Plates were incubated 6 hrs at 37° C., 5% CO2. • 6. 15 μL 3× DiscoveRx detection reagent was added to each well. • 7. Plates were incubated for 1 hour at room temperature (plates stored in the dark). • 8.

| Compound | IC50 |
| --- | --- |
| COc1cc(OC)cc(-c2n[nH]c(C3(Cc4ccccc4)OC(=O)N([C@H](C)c4ccc(F)cc4)C3=O)n2)c1 (stereo partly drawn) [Compound 1, 5-Benzyl-5-[5-(3,5-dimethoxyphenyl)-4H-1,2,4-triazol-3-yl]-3-[(1R)-1-(4-fluorophenyl)ethyl]-1,3-oxazolidine-2,4-dione] | 500 to 2000 nM |
| C[C@H](c1ccccc1)N1C(=O)O[C@](Cc2ccccc2)(c2nnc(C3(c4cc(F)cc(F)c4)CC3)o2)C1=O [Compound 9, (5R)-5-Benzyl-5-{5-[1-(3,5-difluorophenyl)cyclopropyl]-1,3,4-oxadiazol-2-yl}-3-[(1R)-1-phenylethyl]-1,3-oxazolidine-2,4-dione] | 100 to 500 nM |
| COc1cc(N)cc(-c2nnc([C@@]3(Cc4ccccc4)OC(=O)N([C@H](C)c4ccccc4)C3=O)o2)c1 [Compound 10, (5R)-5-[5-(3-Amino-5-methoxyphenyl)-1,3,4-oxadiazol-2-yl]-5-benzyl-3-[(1R)-1-phenylethyl]-1,3-oxazolidine-2,4-dione] | 100 to 500 nM |
| C[C@H](c1ccccc1)N1C(=O)O[C@](Cc2ccccc2)(c2nnc(CC(F)(F)F)o2)C1=O [Compound 11, (5R)-5-Benzyl-3-[(1R)-1-phenylethyl]-5-[5-(2,2,2-trifluoroethyl)-1,3,4-oxadiazol-2-yl]-1,3-oxazolidine-2,4-dione] | 500 to 2000 nM |
| C[C@H](c1ccccc1)N1C(=O)O[C@](Cc2ccccc2)(c2nnc(C3(c4ccncc4)CC3)o2)C1=O [Compound 14, (5R)-5-Benzyl-3-[(1R)-1-phenylethyl]-5-[5-(1-pyridin-4-ylcyclopropyl)-1,3,4-oxadiazol-2-yl]-1,3-oxazolidine-2,4-dione] | 100 to 500 nM |

Other lines, results leading:

| IC50 | Compound |
| --- | --- |
| 500 to 2000 nM | COc1cc(OC)cc(-c2nnc([C@@]3(Cc4ccccc4)NC(=O)N([C@H](C)c4ccccc4)C3=O)o2)c1 (single isomer, unassigned) [Compound 22] |
| < 100 nM | COc1cc(Cc2nnc([C@@]3(Cc4ccccc4)OC(=O)N([C@H](C)c4ccccc4)C3=O)o2)cc(OC)c1 [Compound 2, (5R)-5-Benzyl-5-[5-(3,5-dimethoxybenzyl)-1,3,4-oxadiazol-2-yl]-3-[(1R)-1-phenylethyl]-1,3-oxazolidine-2,4-dione] |
| 500 to 2000 nM | C[C@H](c1ccccc1)N1C(=O)O[C@](Cc2ccccc2)(c2nnc(C3(C(F)(F)F)CC3)o2)C1=O [Compound 12, (5R)-5-Benzyl-3-[(1R)-1-phenylethyl]-5-{5-[1-(trifluoromethyl)cyclopropyl]-1,3,4-oxadiazol-2-yl}-1,3-oxazolidine-2,4-dione] |
